Experimental data as given in patent US6875757B2, “LPA receptor agonists and antagonists and methods of use” (University of Tennessee Research Foundation, priority 2000, dated 2005).
Where two headings read alike, the source gives them in different places. Values belong to the compound of their own block, whether it stands above or below them.

Experiments:
[1] = test system: DU-145 prostate cancer cell line; assay: Cytotoxicity / growth inhibition (SRB), DU145; format: cell-based; settings: read-out: IC50 ± SEM, DU145
Protocol: (§1) Cells were removed from stock flasks using trypsin, centrifuged, resuspended in fresh media, and plated at a density of approximately 2,000 cells/well in 96-well culture plates. Final drug concentrations ranged from 0.05 to either 10 or 50 μM. Control experiments with no drug added (negative control) and 5-fluorouracil added (positive control) were performed in parallel. Media was removed and replaced at 48 hours to minimize the effects of drug degradation during the course of the experiment. After 96 hours drug exposure, cells were fixed by the addition of cold 50% trichloroacetic acid (TCA) and incubation at 4° C. for 1 hour. Fixed cells were stained with sulforhodamine B (SRB), and cell number was determined by comparison of absorbance at 540 nm, as compared to a standard curve of cell number versus absorbance. Experiments were performed in duplicate.

HEY ovarian cancer cells [2] = assay: LPA-induced HEY ovarian cancer cell migration (cell motility); format: cell-based; settings: compound 1 μM against 0.1 μM LPA
Protocol: It is known that two LPA receptors, EDG-2 and EDG-7, are expressed in HEY ovarian cancer cells, so compounds 56, 56a, and 66 were evaluated for their ablity to inhibit LPA-induced cell motility (compound conc: 1 μM against 0.1 μM LPA conc:).
HEY ovarian cells were maintained in RPMI 1640 medium with 2 mM L-glutamine (GIBCO BRL) supplemented with 10% fetal bovine serum (FBS, Hyclone). All cells were synchronized to the Go/G1 stage by growing them to confluency for 2 days. The cells were replated and harvested for experiments when cells were about 50-60% confluent on the flask. After removal of the cells from the flask, they were exposed for 5 min to 0.53 mM EDTA in PBS at 37° C. EDTA was neutralized with equal volume of RPMI 1640 plus 2 mM L-glutamine and 10% FBS. Cells were centrifuged at 800 rpm for 10 min at room temperature. Harvested cells were washed twice with RPMI 1640 with 2 mM L-glutamine medium and resuspended in the concentration of 1×10^6 cells/ml, and then rested for 1 hr at 37° C.
A modified quantitative cell migration assay (Cat. # ECM500 from Chemicon, Temecula, Calif.) was used to test cell motility. The Chemicon chamber membrane was coated with fibronectin-containing pores of 8 microns in diameter. A 400 μl RPMI/2 mM L-glutamine containing either no inhibitors or inhibitors (1 μM) were pippetted into the lower chamber. About 5×10^4 cells in RPMI 1640/2 mM L-glutamine were added to the top chamber. The 24-well plates with inserts were incubated for 4 hours in a 5% CO2 incubator at 37° C. At the end of incubation, the chambers were removed to a fresh 24-well plate, and the cells on the inside chamber were removed by a swab several times and placed in the prepared Cell Stain Solution for 30 minutes at room temperature. At the end of incubation, Cell Stain Solution was removed from the wells. The chambers were washed 3 times with 1 mL PBS per well. After the final PBS wash, the chambers were examined to confirm proper cell morphology, and adherent cells were counted using an inverted microscope.

[3] = test system: PC-3 prostate cancer cell line; assay: Cytotoxicity / growth inhibition (SRB), PC-3; format: cell-based; settings: 96 hours drug exposure, read-out: IC50 ± SEM, PC-3
Protocol: as §1

PSP24 PLGFR = PSP24 PLGFR (Xenopus laevis, UniProt P79945); assay: Xenopus oocyte assay: LPA-induced oscillatory chloride currents (two-electrode voltage clamp); format: cell-based; settings: for reversibility of inhibition of LPA-induced chloride currents: after washing the oocyte
PSP24 PLGFR, sequence (P79945 whole entry): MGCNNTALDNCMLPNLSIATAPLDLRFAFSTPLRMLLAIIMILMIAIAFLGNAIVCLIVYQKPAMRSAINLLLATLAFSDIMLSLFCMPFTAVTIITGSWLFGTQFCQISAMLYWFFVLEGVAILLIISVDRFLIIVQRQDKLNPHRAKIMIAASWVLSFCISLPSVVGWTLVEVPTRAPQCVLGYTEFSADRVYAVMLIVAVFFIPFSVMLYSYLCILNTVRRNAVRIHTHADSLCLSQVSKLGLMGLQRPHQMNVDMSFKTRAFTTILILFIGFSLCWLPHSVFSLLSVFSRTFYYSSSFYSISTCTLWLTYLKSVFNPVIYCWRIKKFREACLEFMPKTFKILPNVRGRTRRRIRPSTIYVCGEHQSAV
Protocol: Xenopus oocytes which endogenously express PSP24 PLGFR were used to screen the newly designed and synthesized compounds for their LPA inhibitory activity.
(§2) Oocytes were obtained from xylazine-anesthetized adult Xenopus laevis frogs (Carolina Scientific, Burlington, N.C.) under aseptic conditions and prepared for experiment. […] Oocytes were kept in Barth's solution in an incubator between 17-20° C. and were used for 2-7 days after isolation.
(§3) Electrophysiological recordings were carried out using a standard two-electrode voltage-clamp amplifier holding the membrane potential at −60 mV (GeneClamp 500, Axon Instruments, Calif.). […] Membrane currents were recorded with a NIC-310 digital oscilloscope (Nicolet, Madison, Wis.). Applications were made at intervals of 15 mins (minimum) to allow for the appropriate washout and recovery from desensitization.
as §2
as §3, with “CA).” for “Calif.).”

[4] = test system: LNCaP prostate cancer cell line; assay: Cytotoxicity / growth inhibition (SRB), LNCaP; format: cell-based; settings: 96 hours drug exposure, read-out: IC50 ± SEM, LNCaP
Protocol: as §1

human Edg-2 = target: T1, human Edg-2 (Homo sapiens, UniProt Q92633); assay: Ca2+ responses (Fura-2) in RH7777 cells expressing Edg-2; format: cell-based
T1 construct: expressed in transfected cells
T1 sequence (Q92633 whole entry): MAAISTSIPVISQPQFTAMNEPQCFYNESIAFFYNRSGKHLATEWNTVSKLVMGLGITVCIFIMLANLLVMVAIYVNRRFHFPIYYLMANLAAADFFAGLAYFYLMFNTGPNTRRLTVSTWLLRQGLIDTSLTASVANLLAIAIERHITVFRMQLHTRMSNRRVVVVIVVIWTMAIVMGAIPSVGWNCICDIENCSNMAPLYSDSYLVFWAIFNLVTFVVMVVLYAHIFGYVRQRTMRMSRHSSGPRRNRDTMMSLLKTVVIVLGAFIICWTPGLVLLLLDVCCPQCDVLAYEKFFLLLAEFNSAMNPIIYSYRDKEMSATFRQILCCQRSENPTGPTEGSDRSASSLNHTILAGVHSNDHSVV
Protocol: (§4) RH7777 cells were transfected with the cDNA constructs encoding human Edg-2, Edg-4, or Edg-7 and then were subcloned into the pCDNA3 expression vector using the Cytofectene transfection reagent according to the manufacturers' protocol. Transfected cells were selected in DMEM containing 10% FBS and 1 mg/ml geneticin. Resistant cells were collected and subcloned by limiting dilution. The resulting clones were then screened using functional assays and RT-PCR analysis. Data are representative of three individual clones.

human Edg-7 = target: T2, human Edg-7 (Homo sapiens, UniProt Q9UBY5); assay: Ca2+ responses (Fura-2) in RH7777 cells expressing Edg-7; format: cell-based
T2 construct: Flag; expressed in transfected cells
T2 sequence (Q9UBY5 1-353): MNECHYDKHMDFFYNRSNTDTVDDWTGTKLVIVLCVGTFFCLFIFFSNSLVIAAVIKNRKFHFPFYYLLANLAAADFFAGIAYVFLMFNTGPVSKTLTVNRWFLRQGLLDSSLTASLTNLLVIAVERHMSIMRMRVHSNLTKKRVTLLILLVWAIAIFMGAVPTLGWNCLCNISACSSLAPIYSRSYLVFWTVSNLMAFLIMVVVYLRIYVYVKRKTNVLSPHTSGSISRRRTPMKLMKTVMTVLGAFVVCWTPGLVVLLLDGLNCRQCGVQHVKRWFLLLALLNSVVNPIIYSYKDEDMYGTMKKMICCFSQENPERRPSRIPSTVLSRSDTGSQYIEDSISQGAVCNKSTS
Protocol: as §4

HEY ovarian cancer cells [5] = assay: Ca2+ responses in HEY ovarian cancer cells; format: cell-based; settings: 100 nM LPA 18:1 mixed with 1 μM lipid
Excerpt: Likewise, PA 8:0 inhibited the Ca^2+ response to 6% of control, whereas PA 18:1 had no effect. HEY express mRNA transcripts for Edg-1, -2, -5, -7 receptors (FIG. 34C).

[6] = test system: G-protein coupled receptors for acetycholine; settings: oocytes injected with rat brain polyA+ mRNA
Excerpt: (§5) To show the specificity of DGPP 8:0 for the LPA receptors expressed in the oocyte, the expression of neurotransmitter receptors was induced by the injection of polyA+ mRNA from rat brain.

[7] = test system: G-protein coupled receptors for serotonin; settings: oocytes injected with rat brain polyA+ mRNA
Excerpt: as §5

human Edg-4 = target: T3, human Edg-4 (Homo sapiens, UniProt Q9HBW0); assay: Ca2+ responses (Fura-2) in RH7777 cells expressing Edg-4 (stable or transient); format: cell-based; settings: 100 nM LPA 18:1 and 1 μM DGPP 8:0
T3 construct: expressed in transfected cells
T3 sequence (Q9HBW0 whole entry): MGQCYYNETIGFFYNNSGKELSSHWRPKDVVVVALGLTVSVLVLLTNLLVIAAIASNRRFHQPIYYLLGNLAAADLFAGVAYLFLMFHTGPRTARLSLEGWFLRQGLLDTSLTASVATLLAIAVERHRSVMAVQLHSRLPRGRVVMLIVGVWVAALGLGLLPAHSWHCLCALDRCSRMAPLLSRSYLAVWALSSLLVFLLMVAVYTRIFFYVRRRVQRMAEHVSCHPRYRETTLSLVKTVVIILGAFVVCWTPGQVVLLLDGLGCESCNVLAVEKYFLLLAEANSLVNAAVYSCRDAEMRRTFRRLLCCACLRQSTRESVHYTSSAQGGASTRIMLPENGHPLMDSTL
Excerpt: RH7777 cells, stably expressing human Edg-4, were kindly provided by Dr. Kevin Lynch (University of Virginia, Charlottesville, Va.). Flag-tagged cDNA's encoding human Edg-4 and -7 inserted into the pCDNA3 expression plasmid (Invitrogen, Carlsbad, Calif.), were a generous gift from Dr. Junken Aoki (University of Tokyo, Tokyo, Japan). RH7777 and NIH3T3 cells were obtained from the American Type Culture Collection (Manassas, Va.). HEY cells were provided by Dr. Lisa Jennings (University of Tennessee, Memphis). All cell lines were maintained in Dulbecco's Modified Eagle's Medium (DMEM) containing 10% FBS and 2 mM glutamine. Oocytes were obtained from adult Xenopus laevis frogs as previously described (Tigyi et al., 1999).
as §4
RH7777 cells were plated on polylysine-coated glass coverslips (Bellco, Vineland, N.J.) one day prior to transfection. The following day, cells were transfected overnight (16-18 hr) with 1 μg of plasmid DNA mixed with 6 μl of Cytofectene. The cells were then rinsed twice with DMEM and cultured in DMEM containing 10% FBS. The next day, the cells were rinsed with DMEM and serum was withdrawn for a minimum of 2 hr prior to monitoring intracellular Ca^2+.

NIH3T3 cells [8] = test system: NIH3T3 cells
Protocol: Data points from the intracellular Ca^2+ measurements represent the total peak area of the Ca^2+ transients elicited, as determined by the FLWinLab software (Perkin-Elmer, Wellesley, Mass.). Data points represent the average of at least 3 measurements±standard deviation. The significance of the data points was determined using the students t-test and values were considered significant at p<0.05.
The effect of DGPP 8:0 on LPA-elicited responses was also examined in mammalian systems that endogenously express LPA receptors. NIH3T3 cells were screened by RT-PCR for the presence of mRNA for the Edg and PSP24 receptors.

NIH3T3 cells [9] = assay: LPA-elicited proliferation of NIH3T3 cells (cell counting); format: cell-based
Protocol: Proliferation of NIH3T3 cells was assessed by direct cell counting as previously described (Tigyi et al., 1999). NIH3T3 cells were plated in 24-well plates at a density of 10,000 cells/well, in DMEM containing 10% FBS. The following day, the cells were rinsed and serum starved in DMEM for 6 hr. Lipids were then added for 24 hr. Cell numbers were determined by counting in a Coulter counter (Coulter Electronics, Hialeah, Fla.).

[10] = 10-fold excess: 100 nM LPA 18:1 and 1 μM DGPP 8:0
[11] = LPA constant at its EC50 (250 nM LPA 18:1), read-out: IC50, inhibition of LPA-elicited Ca2+ responses

effect on LPA response after intracellular microinjection (PSP24 PLGFR; 5 μM microinjected inside the cell, then extracellular LPA (10 nM)): failed to inhibit the LPA response | reversibility of inhibition of LPA-induced chloride currents (PSP24 PLGFR): reversible | effect on the LPA response at 5 μM (PSP24 PLGFR; compound at 5 μM): completely abolished the effect of LPA
Compound: CCCCCCCCCCCCCCCCCCOCC(COP(=O)(O)O)OP(=O)(O)O (stereo not drawn) [Compound 66, 1,2-(3-Octadecyloxypropane)-bis(dihydrogen phosphate)]
IC50 ([1]; Homo sapiens, DU-145, 96 hours drug exposure): > 10 µM | inhibition at 1 µM (HEY ovarian cancer cells [2]): ~70% | IC50 [3]: > 10 µM | inhibition of LPA-induced chloride currents (PSP24 PLGFR; Xenopus oocytes, extracellular application): inhibitors of LPA-induced chloride current | IC50 ([4]; Homo sapiens, LNCaP): 3.1 ± 3.2 µM

Compound: 2-Amino-3-(nonylamino)-3-oxopropyl dihydrogen phosphate [Compound 55]
IC50 ([1]; 96 hours drug exposure): 24.9 ± 4.1 µM | effect on LPA-induced cell motility (HEY ovarian cancer cells [2]): potentiated the LPA-induced cell motility | IC50 [3]: 31.6 ± 9 µM | inhibition of LPA-induced response (PSP24 PLGFR; compound at 1 μM against 2 nM LPA): 38% | IC50 [4]: 4.9 ± 2.6 µM

Ca2+ response, % of control (human Edg-2; 250 nM LPA 18:1 mixed with 10 μM lipid): 50 % of control | inhibition of LPA-elicited Ca2+ responses (human Edg-2; [10]): approximately 50% | IC50 (human Edg-2; [11]): 11 ± 0.68 µM | mechanism of inhibition (shift of LPA dose response curve) (human Edg-2; constant DGPP 8:0, 3 μM): competitive | inhibition of the Ca2+ responses (human Edg-7; 250 nM LPA 18:1 mixed with 500 nM lipid): 50% | effect on LPA-elicited Ca2+ responses (human Edg-7; [10]): completely abolished | IC50 (human Edg-7; [11]): 0.285 ± 0.028 µM | mechanism of inhibition (shift of LPA dose response curve) (human Edg-7; constant DGPP 8:0, 250 nM): competitive | inhibition of carbachol-elicited responses [6]: did not inhibit | inhibition of serotonin-elicited responses [7]: did not inhibit | LPA response with compound applied extracellularly (PSP24 PLGFR; 5 nM LPA 18:1 and 1 μM DGPP 8:0): completely inhibited | IC50 (PSP24 PLGFR; 5 nM LPA 18:1 mixed with increasing DGPP 8:0, read-out: IC50, inhibition of Ca2+-mediated inward Cl- currents elicited by LPA): 0.096 ± 0.021 µM | mechanism of action (shift of LPA 18:1 dose response curve) (PSP24 PLGFR; 200 nM DGPP 8:0): competitive | reversibility of inhibition of LPA-induced chloride currents (PSP24 PLGFR): reversible | effect on LPA-elicited Ca2+ responses (human Edg-4; stable Edg-4): unaffected | effect on LPA-elicited Ca2+ responses (human Edg-4; transient Edg-4): not effected
Compound: CCCCCCCC(=O)OC[C@H](COP(=O)(O)OP(=O)(O)O)OC(=O)CCCCCCC [DGPP 8:0, diacylglycerol pyrophosphate]
LPA-elicited Ca2+ response, % of control (HEY ovarian cancer cells [5]): 12 % of control | LPA response after intracellular injection of compound (PSP24 PLGFR; intracellular injection, estimated >300 nM, extracellular 5 nM LPA 18:1): elicited a response equal in size to that of the control | effect on LPA-elicited Ca2+ responses (NIH3T3 cells [8]; 100 nM LPA in the presence of 10 μM DGPP 8:0): significantly inhibited | effect on S1P-elicited Ca2+ response (NIH3T3 cells [8]; 100 nM S1P in the presence of 10 μM DGPP 8:0): not effected | inhibition of the Ca2+ responses (NIH3T3 cells [8]; 100-fold excess over LPA): 40% | effect on LPA-induced proliferation (NIH3T3 cells [9]; 5 μM LPA 18:1 mixed with 10 μM lipid, 24 hr): significantly inhibited | effect on solvent-treated control cells (NIH3T3 cells [9]; 10 μM lipid, solvent (BSA) in place of LPA 18:1, 24 hr): had no effect
